ChEMBL document CHEMBL5726907, “FXR (NR1H4) modulating compounds” (2018)

Target: T1, Bile acid receptor (Homo sapiens, UniProt Q96RI1)
T1 sequence (Q96RI1 whole entry): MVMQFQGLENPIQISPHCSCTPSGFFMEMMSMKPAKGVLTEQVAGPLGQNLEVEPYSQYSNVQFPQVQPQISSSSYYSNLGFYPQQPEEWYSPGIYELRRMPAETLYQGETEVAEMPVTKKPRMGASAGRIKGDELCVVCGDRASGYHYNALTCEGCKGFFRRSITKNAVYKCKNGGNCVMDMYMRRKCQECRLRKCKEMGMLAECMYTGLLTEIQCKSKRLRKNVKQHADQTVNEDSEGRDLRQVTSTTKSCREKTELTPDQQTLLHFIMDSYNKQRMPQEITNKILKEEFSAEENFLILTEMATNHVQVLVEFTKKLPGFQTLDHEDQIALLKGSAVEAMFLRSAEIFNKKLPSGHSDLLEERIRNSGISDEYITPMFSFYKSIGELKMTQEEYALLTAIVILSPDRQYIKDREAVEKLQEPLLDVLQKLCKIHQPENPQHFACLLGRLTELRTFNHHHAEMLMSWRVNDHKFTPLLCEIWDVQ
Experiment: FRET Activity Assay: The human FXRalpha LBD was expressed in E. coli strain BL21(DE3) as an N-terminally GST tagged fusion protein. The DNA encoding the FXR ligand binding domain was cloned into vector pDEST15 (Invitrogen). Expression was under control of an IPTG inducible T7 promoter. The amino acid boundaries of the ligand binding domain were amino acids 187-472 of Database entry NM_005123 (RefSeq). Expression and purification of the FXR-LBD: An overnight preculture of a transformed E. coli strain was diluted 1:20 in LB-Ampicillin medium and grown at 30° C. to an optical density of =0.4-0.6. Gene expression was then induced by addition of 0.5 mM IPTG. Cells were incubated an additional 6 h at 30° C., 180 rpm. Cells were collected by centrifugation (7000×g, 7 min, rt). Per liter of original cell culture, cells were resuspended in 10 mL lysis buffer (50 mM Glucose, 50 mM Tris pH 7.9, 1 mM EDTA and 4 mg/mL lysozyme) and left on ice for 30 min. Cells were then subjected to sonication and cell debris removed via centrifugation (22000×g, 30 min, 4° C.). Per 10 mL of supernatant 0.5 mL prewashed Glutathione 4B sepharose slurry (Qiagen) was added and the suspension kept slowly rotating for 1 h at 4° C. Glutathione 4B sepharose beads were pelleted by centrifugation (2000× g, 15 sec, 4° C.) and washed twice in wash buffer (25 mM Tris, 50 mM KCl, 4 mM MgCl2 and IM NaCl). […]

IC50	Structure (SMILES)
30 nM	O=C(O)c1ccc2nc(C3(O)C4COCC3CC(OCc3c(-c5c(Cl)cccc5Cl)noc3C3CC3)C4)sc2c1 (configuration not stated)
19 nM	O=C(O)c1cc(F)c2nc(C3(O)C4COCC3CC(OCc3c(-c5c(Cl)cccc5Cl)noc3C3CC3)C4)sc2c1 (configuration not stated)
